Where two headings read alike, the source gives them in different places. Positions of bridges follow the written chain, without caps; N, C: chain ends. No end group written: not given here.
How the values were obtained:
Format in all cases: biochemical
[1] = target: T1, TF.cndot.FVIIa (Homo sapiens, UniProt P08709); assay: TF·FVIIa enzyme inhibition assay, apparent equilibrium dissociation constant (Ki*)
T1 construct: is generated by proteolysis of a single peptide bond from its zymogen Factor VII (FVII); purchased Haematologic Technologies Inc. (Essex Jct., Vt.); host or cells: TF1-243 made in house in E. coli
T1 sequence (P08709 213-466 limits assumed): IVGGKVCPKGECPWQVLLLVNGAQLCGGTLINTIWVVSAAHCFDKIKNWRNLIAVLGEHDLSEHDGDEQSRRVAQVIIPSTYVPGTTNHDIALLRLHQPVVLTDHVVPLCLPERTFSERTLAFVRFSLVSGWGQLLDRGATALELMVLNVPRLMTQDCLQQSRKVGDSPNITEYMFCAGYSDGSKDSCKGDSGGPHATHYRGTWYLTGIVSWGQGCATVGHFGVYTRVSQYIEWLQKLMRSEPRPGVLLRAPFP
T1 sequence (P08709 61-212 limits assumed): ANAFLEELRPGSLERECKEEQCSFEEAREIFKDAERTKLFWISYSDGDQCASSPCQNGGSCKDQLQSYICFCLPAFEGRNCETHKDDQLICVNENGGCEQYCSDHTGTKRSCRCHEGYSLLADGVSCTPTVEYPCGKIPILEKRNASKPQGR
T1 sequence (P13726 33-275 partner limits assumed): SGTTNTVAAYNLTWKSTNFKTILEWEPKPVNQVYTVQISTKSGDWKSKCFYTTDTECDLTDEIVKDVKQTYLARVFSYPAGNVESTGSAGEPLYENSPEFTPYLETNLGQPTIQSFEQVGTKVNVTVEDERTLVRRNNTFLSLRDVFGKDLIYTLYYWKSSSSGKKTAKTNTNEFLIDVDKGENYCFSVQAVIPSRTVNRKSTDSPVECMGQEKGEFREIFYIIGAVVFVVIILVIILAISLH
Description: Aliquots (25 μL) from each well of a microtiter plate containing the serially diluted inhibitors were transferred into new microtiter plates, each containing a different protease (100 μL) in the appropriate buffer. The proteases tested (protease concentration, buffer, substrate) were FVIIa (10 nM, Buffer A, 0.7 mM S2366), FXIa (1.0 nM, Buffer B containing 1 mg/ml BSA, 0.7 mM S2366), plasma kallikrein (3.5 nM, Buffer B, 0.5 mM S2302), and plasmin (15 nM, Buffer B, 1 mM S2251).

[2] = system: normal human plasma, clotting initiated by ellagic acid; assay: activated partial thromboplastin time (APTT) assay; details: ca. 7 μM inhibitor
Description: FIG. 7. Prolongation of clotting time in the APTT assay in normal human plasma. […] The uninhibited clotting time was 31 sec.
For the activated partial thromboplastin time (APTT) assays, the activation time was set at 120 sec and acquisition time at 300 to 600 sec depending on the expected outcome of the assay. Citrated normal human plasma and inhibitor were incubated together. The sample (plasma and inhibitor) and activator (Instrumentation Laboratories Ellagic acid/Phospholipid mix Test Reagent) were automatically pipetted and incubated together for 2 min at 37° C., then CaCl2 was added and clotting time determined by means of optical assessment. The total incubation time of inhibitor with plasma was ca. 3 min before addition of activator, and 5 min before addition of CaCl2.

[3] = system: normal human plasma, clotting initiated by TF membranes; assay: tissue factor initiated prothrombin time (PT) assay
Description: FIG. 6. Prolongation of clotting time in the PT assay in normal human plasma. […] The uninhibited clotting time was 48 sec.
Clotting times were performed using the ACL 300 Research Coagulation Analyzer. For the prothrombin time (PT) assays, the incubation time was set at 120 sec and acquisition time at 120 to 600 sec depending on the expected outcome of the assay. Membranes from 293 cells expressing full length TF (Paborsky, L. R. et al., Biochemistry 28: 8072-8077 [1989]) were premixed with CaCl2. The sample (plasma and inhibitor) and reagent (CaCl2 /TF) were automatically mixed together after a 2 min incubation at 37° C. The clotting time was determined by optical assessment. The total incubation time of inhibitor with plasma before addition of CaCl2 /TF was ca. 5 min. Final concentrations were 2 to 20 μM inhibitor, 3.7 nM TF (0.9 μg/ml by protein content), 22.5 mM CaCl2, and 50% plasma in a total volume of 160 μL.

[4] = target: T2, activated protein C (Homo sapiens, UniProt P04070); assay: activated protein C enzyme inhibition assay (Ki*)
T2 construct: purchased Haematologic Technologies Inc. (Essex Jct., Vt.)
T2 sequence (P04070 212-450 limits assumed): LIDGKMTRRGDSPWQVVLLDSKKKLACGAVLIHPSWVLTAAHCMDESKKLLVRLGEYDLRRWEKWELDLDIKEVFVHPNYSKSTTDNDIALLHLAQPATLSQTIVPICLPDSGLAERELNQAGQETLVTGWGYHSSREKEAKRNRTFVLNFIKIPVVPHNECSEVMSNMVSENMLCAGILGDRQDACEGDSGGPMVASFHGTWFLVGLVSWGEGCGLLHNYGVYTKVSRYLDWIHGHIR
T2 sequence (P04070 43-197 limits assumed): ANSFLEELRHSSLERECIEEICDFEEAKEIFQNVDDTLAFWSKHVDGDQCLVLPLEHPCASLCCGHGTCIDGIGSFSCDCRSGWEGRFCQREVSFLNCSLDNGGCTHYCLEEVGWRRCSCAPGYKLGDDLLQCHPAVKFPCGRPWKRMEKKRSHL
Description: (§1) To aliquots of serial diluted inhibitor, either activated protein C, thrombin, FXa, FXIa, FXIIa, plasma kallikrein or plasmin were added. After incubation and addition of the appropriate substrate, plots of fractional activity versus inhibitor concentration were generated as described in Example 3.
(§2) After incubation of the substrate/inhibitor mixes at room temperature for 1-3 h, the appropriate substrate (20 μL) was added, and the absorbance at 405 nm was monitored. Controls lacking inhibitor and enzyme were assayed to measure the uninhibited and substrate hydrolysis rates, respectively. Plots of the fractional rate versus inhibitor concentration were fit by nonlinear regression analysis to equation 1 and apparent equilibrium dissociation constants (Ki *) were determined. […] The concentrations of activated protein C, thrombin and plasmin were based upon those of the supplier.

[5] = target: thrombin (Homo sapiens, UniProt P00734); assay: thrombin enzyme inhibition assay (Ki*)
Description: as §1, §2

[6] = target: T3, FXa (Homo sapiens, UniProt P00742); assay: FXa enzyme inhibition assay (Ki*)
T3 construct: purchased Haematologic Technologies Inc. (Essex Jct., Vt.)
T3 sequence (P00742 235-488 limits assumed): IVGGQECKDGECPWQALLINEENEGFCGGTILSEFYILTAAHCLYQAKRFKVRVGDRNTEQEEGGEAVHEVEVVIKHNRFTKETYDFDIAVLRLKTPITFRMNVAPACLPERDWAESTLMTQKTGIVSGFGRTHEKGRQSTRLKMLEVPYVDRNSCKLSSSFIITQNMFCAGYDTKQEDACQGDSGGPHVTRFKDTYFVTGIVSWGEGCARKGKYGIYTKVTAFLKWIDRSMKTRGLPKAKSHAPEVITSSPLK
T3 sequence (P00742 41-179 limits assumed): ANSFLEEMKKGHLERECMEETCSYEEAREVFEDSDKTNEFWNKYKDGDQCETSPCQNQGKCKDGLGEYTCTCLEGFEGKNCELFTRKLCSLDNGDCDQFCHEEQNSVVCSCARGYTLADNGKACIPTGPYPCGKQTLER
Description: as §1, §2

[7] = target: T4, FXIIa (Homo sapiens, UniProt P00748); assay: FXIIa enzyme inhibition assay (Ki*)
T4 construct: purchased Enzyme Research Laboratories, Inc. (South Bend, Ind.)
T4 sequence (P00748 373-615 limits assumed): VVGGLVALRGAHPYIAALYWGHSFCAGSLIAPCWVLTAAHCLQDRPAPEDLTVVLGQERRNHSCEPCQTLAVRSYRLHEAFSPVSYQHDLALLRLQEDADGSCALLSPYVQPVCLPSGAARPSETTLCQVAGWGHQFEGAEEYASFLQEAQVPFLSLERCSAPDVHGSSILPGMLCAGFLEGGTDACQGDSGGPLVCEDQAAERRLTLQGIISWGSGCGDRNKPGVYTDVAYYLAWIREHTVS
T4 sequence (P00748 20-372 limits assumed): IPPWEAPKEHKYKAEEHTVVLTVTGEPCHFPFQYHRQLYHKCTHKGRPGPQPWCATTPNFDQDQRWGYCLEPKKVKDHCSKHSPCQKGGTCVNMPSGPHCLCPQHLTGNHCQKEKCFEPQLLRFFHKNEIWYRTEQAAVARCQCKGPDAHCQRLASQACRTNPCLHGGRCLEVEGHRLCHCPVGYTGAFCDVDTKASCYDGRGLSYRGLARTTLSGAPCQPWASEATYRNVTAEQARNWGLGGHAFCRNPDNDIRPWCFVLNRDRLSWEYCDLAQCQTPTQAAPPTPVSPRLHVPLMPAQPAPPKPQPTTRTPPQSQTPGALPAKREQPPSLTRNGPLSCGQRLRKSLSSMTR
Description: as §1, §2

[8] = equilibrium conditions, read-out: apparent Ki* with TF.cndot.FVIIa (FIG. 4)

With “first Kunitz domain of TFPI: first Kunitz domain (residues 22-79) of human tissue factor pathway inhibitor (MHSFCAFKADDGPCKAIMKRFFFNIFTRQCEEFIYGGCEGNQNRFESLEECKKMCTRD)” the Ki [1, 8] was ~600 nM.
In the case of “TF7I-C: APPI Kunitz domain variant (SEQ ID NO: 33) with Thr11Pro, Met17Leu, Ser19Leu and Gly39Tyr compared to wild type APPI”, the “prolongation of clotting time in APTT assay” value [2] is reported as “greater than 10 fold”, the “prolongation of clotting time in PT assay” value ([3]; 10 μM inhibitor, clotting initiated by TF membranes) is reported as ~3 fold and the “prolongation of clotting time in PT assay” value ([3]; ca. 20 μM inhibitor) is reported as 4 fold.
In the case of “VREVCSEQAETGPCRAMISRWYFDVTEGKCAPFFYGGCGGNRNNFDTEEYCMAVCGSA (disulfide 5-55, 14-38, 30-51) [APPI]”, the Ki [4] is reported as > 10000 nM, the Ki [5] is reported as > 10000 nM and the Ki [6] is reported as > 10000 nM. For the same substance, the Ki [7] was > 10000 nM, the Ki ([1]; FVIIa 10 nM, TF1-243 50 nM, nonlinear regression, equation 1, read-out: Ki* with TF.cndot.FVIIa (FIG. 5, representative determination)) was 300 nM and the Ki [1, 8] was 301 ± 44 nM.

From patent US5795954A, “Factor VIIa inhibitors from Kunitz domain proteins” (Genentech, Inc., priority 1994, dated 1998)
